Measured values taken from patent publication US20260132123A1, “ABAD INHIBITOR COMPOUNDS” (UNIVERSITY COURT OF THE UNIVERSITY OF ST ANDREWS, priority 2021, published 2026).
pEC50: −log10 of the molar value.

Tests used:
[1] = system: mtsABAD HEK293 cells; test: Alamar Blue cell viability assay; type: cell-based, human; details: 50 μM compound
Method: Cell viability was assessed via fluorescence change using the commercially available Alamar Blue from ThermoFisher. HEK293 cells overexpressing mts17β-HSD10 were cultured in phenol-red free media (10% FBS, 1 mM sodium pyruvate, 100 units penicillin, 0.1 mg/mL streptomycin and 2 mM L-glutamine) and seeded at a density of 10,000 cells per well (100 μL, 96 well plates). […] Treated cells were then incubated at 37° C. and CO2 (5%) for 24 hours before the assay was performed as per the manufacturer's instructions. Fluorescence was measured at 530 nm excitation and 590 nm emission using a SpectraMaxM2e spectrophotometer.

[2] = molecular target: T1, 17β-HSD10 (Homo sapiens, UniProt Q99714); test: 17β-HSD10 (ABAD) enzyme inhibition assay, NADH oxidation read at 340 nm (primary screen and dose response); type: biochemical; details: for IC50: 17β-HSD10 dose response / inhibition assay, read-out: 17β-HSD10 pIC50 (converted); for pEC50 / Max. Effect (%) / Hill Slope / Max. Fit / Min. Fit: recombinant 17βHSD10 enzyme assay; for Hill Slope / Max. Fit / Min. Fit: curve fit
T1 construct: Histev (histidine tag with TEV site) (N, cleaved yes); made in house; host or cells: E. coli BL21-CodonPlus
T1 sequence (Q99714 1-261): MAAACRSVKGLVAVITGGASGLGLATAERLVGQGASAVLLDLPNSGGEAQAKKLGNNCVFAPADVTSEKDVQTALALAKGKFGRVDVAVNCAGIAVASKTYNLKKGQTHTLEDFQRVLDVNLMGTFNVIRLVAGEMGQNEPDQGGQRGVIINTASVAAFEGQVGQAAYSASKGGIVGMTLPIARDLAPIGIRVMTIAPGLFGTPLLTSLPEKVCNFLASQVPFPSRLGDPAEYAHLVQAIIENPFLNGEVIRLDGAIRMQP
Outline: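 Screening used a 35 min room-temperature endpoint A340 read after compound (10 μM) and enzyme (2.5 nM, E. coli-expressed, His-tag removed) preincubated 15 min, then 100 μM NADH plus acetoacetyl-CoA added. Dose-response runs tracked absorbance kinetically 45 min; buffer pH 7.4 Tris with BSA, DTT.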

[3] = system: mtsABAD HEK293 cells; test: Lactate dehydrogenase (LDH) cytotoxicity assay; type: cell-based, human; details: 50 μM compound
Method: Cell cytotoxicity was assessed via the measurement of lactate dehydrogenase leakage into the culture medium using a commercially available kit from Pierce (Thermo Scientific cat no. 88953). This was carried out in accordance with the kit guidelines, with the activity of Lactate Dehydrogenase (LDH) being calculated from the change in absorbance at […] as NADH is reduced. HEK293 cells overexpressing mts17β-HSD10 were cultured in phenol-red free media (10% fetal bovine serum (FBS), 1 mM sodium pyruvate, 100 units penicillin, 0.1 mg/mL streptomycin and 2 mM L-glutamine) and seeded at a density of 10,000 cells per well (100 μL, 96 well plates). […] Treated cells were incubated at 37° C. and CO2 (5%) for 24 hours before the LDH assay was performed as per the manufacturer's instructions. Spontaneous control (water) and maximum control (lysis buffer) used in accordance with the kit guide. Absorbance was measured at 490 nm and 680 nm using a SpectraMaxM2e spectrophotometer. The measured LDH activity was used to calculate % cytotoxicity using the following equation: […]

| Structure (SMILES) | pEC50 [2] | Max. Effect (%) [2] [%] | Alamar Blue % Viability (50 μM Dose) [1] [%] | LDH % Toxicity (50 μM Dose) [3] [%] | further results |
| --- | --- | --- | --- | --- | --- |
| COc1ccc(-c2ccccc2[C@H]2CCCN2C(=O)c2sccc2C)cc1 (single isomer, unassigned) [ESC1002331] |  |  | 88.56 | 5.88 |  |
| COc1ccc(-c2ccccc2[C@H]2CCCN2C(=O)c2sccc2C)cc1 [ESC1002089] |  |  | 83.064 | 5.398 | Hill Slope [2]: 1.1; Max. Fit [2]: 98; Min. Fit [2]: 0; fold improvement in activity / potency ([2]; relative to the parent compound of the sentence): under 3 fold |
| CC(C)CN(C(=O)c1ccccc1F)c1cccc(N(C)Cc2cn[nH]c2)c1 [ESC1002205-02] |  |  | 89.638 | 5.243 |  |
| Cc1cn[nH]c1C(=O)N1CCC[C@H]1c1ccccc1 [S1−T1, 4-methyl-5-{[(2S)-2-phenylpyrrolidin-1-yl]carbonyl}-1H-pyrazole] | < 4.70 | 26.5 |  |  |  |
| O=C(c1ncc[nH]1)N1CCC[C@H]1c1ccccc1 [S1−T2, 2-{[(2S)-2-phenylpyrrolidin-1-yl]carbonyl}-1H-imidazole] | < 4.70 | 6.4 |  |  |  |
| O=C(c1ncn[nH]1)N1CCC[C@H]1c1ccccc1 [S1−T3, 5-{[(2S)-2-phenylpyrrolidin-1-yl]carbonyl}-1H-1,2,4-triazole] | < 4.70 | 7.1 |  |  |  |
| O=C(c1ccon1)N1CCC[C@H]1c1ccccc1 [S1−T5, 3-{[(2S)-2-phenylpyrrolidin-1-yl]carbonyl}-1,2-oxazole] | < 4.70 | 27.5 |  |  |  |
| O=C(c1nc(Br)no1)N1CCC[C@H]1c1ccccc1 [S1−T6] | < 4.70 | 20.5 |  |  |  |
| O=C(c1ncco1)N1CCC[C@H]1c1ccccc1 [S1−T9, 2-{[(2S)-2-phenylpyrrolidin-1-yl]carbonyl}-1,3-oxazole] | < 4.70 | 26.6 |  |  |  |
| O=C(c1cocn1)N1CCC[C@H]1c1ccccc1 [S1−T10, 4-{[(2S)-2-phenylpyrrolidin-1-yl]carbonyl}-1,3-oxazole] | < 4.70 | 20.5 |  |  |  |
| O=C(c1cccnc1)N1CCC[C@H]1c1ccccc1 [S1−T12, 3-{[(2S)-2-phenylpyrrolidin-1-yl]carbonyl}pyridine] | < 4.70 | 9.1 |  |  |  |
| O=C(c1ccncc1)N1CCC[C@H]1c1ccccc1 [S1−T13, 4-{[(2S)-2-phenylpyrrolidin-1-yl]carbonyl}pyridine] | < 4.70 | 22.3 |  |  |  |
| O=C(c1[nH]ncc1Cl)N1CCC[C@H]1c1ccccc1 [S1−T14, 4-chloro-5-{[(2S)-2-phenylpyrrolidin-1-yl]carbonyl}-1H-pyrazole] | < 4.70 | 20.8 |  |  |  |
| O=C(c1[nH]ncc1Cl)N1CCC[C@H]1c1ccccn1 [S1−T17, 2-[(2S)-1-[(4-chloro-1H-pyrazol-5-yl)carbonyl]pyrrolidin-2-yl]pyridine] | < 4.70 | 17.5 |  |  |  |
| CCN(C(=O)c1ccccc1F)c1cccc2c1ncc(=O)n2Cc1cnc[nH]1 [S2−T2, N-ethyl-2-fluoro-N-[1-(1H-imidazol-5-ylmethyl)-2-oxo-1,2 dihydroquinoxalin-5-yl]benzamide] | < 4.70 | 4.8 |  |  |  |
| CCN(C(=O)c1ccccn1)c1cccc(N(C)Cc2cnc[nH]2)c1 [S2−T3, N-ethyl-N-[3-[1H-imidazol-5-ylmethyl(methyl)amino]phenyl]pyridine-2-carboxamide] | < 4.70 | 20.3 |  |  |  |
| CCN(C(=O)c1cccc(F)c1)c1cccc(N(C)Cc2cnc[nH]2)c1 [S2−T5, N-ethyl-3-fluoro-N-[3-[1H-imidazol-5-ylmethyl(methyl)amino]phenyl]benzamide] | < 4.70 | 18.4 |  |  |  |
| CCN(C(=O)C1CCOCC1)c1cccc(N(C)Cc2cnc[nH]2)c1 [S2−T6, N-ethyl-N-[3-[1H-imidazol-5-ylmethyl(methyl)amino]phenyl]tetrahydropyran-4-carboxamide] | < 4.70 | 18.4 |  |  |  |
| CCN(C(=O)C1CCCCN1C)c1cccc(N(C)Cc2cnc[nH]2)c1 (stereo not drawn) [S2−T7, N-ethyl-N-[3-[1H-imidazol-5-ylmethyl(methyl)amino]phenyl]-1-methyl-piperidine-2-carboxamide] | < 4.70 | 27.9 |  |  |  |

More lines, main results first:

| pEC50 [2] | Max. Effect (%) [2] [%] | Structure (SMILES) | Alamar Blue % Viability (50 μM Dose) [1] [%] | LDH % Toxicity (50 μM Dose) [3] [%] | further results |
| --- | --- | --- | --- | --- | --- |
| < 4.70 | 7 | COc1ccc(-c2ccccc2[C@@H]2CCCN2C(=O)c2sccc2C)cn1 (single isomer, unassigned) [ESC1002161] | 92.566 | 4.783 | IC50 [2]: > 20 µM; figure in brackets after the pIC50 bound ([2]; Table 3, equals Max. Effect (%) of Table 6): 7 |
| 6.31 | 98 | COc1ccc(-c2ccccc2[C@H]2CCCN2C(=O)c2sccc2C)cn1 (single isomer, unassigned) [ESC1002162] | 83.498 | 6.843 | IC50 [2]: 0.49 µM; Hill Slope [2]: 1; Max. Fit [2]: 99; Min. Fit [2]: 0 |
| 6.78 | 99 | COc1ccc(-c2ccccc2[C@@H]2CCCN2C(=O)c2sccc2C)cc1 (single isomer, unassigned) [ESC1002332] | 87.68 | 3.52 | Hill Slope [2]: 1; Max. Fit [2]: 100; Min. Fit [2]: 0 |
| 5.38 | 64 | COc1ccc(-c2ccccc2[C@H]2CCCN2C(=O)c2ccccc2F)cn1 (stereo in doubt) [ESC1002119, (2-fluorophenyl)-[2-[2-(6-methoxy-3-pyridyl)phenyl]pyrrolidin-1-yl]methanone] | 79.180 | 4.780 | Hill Slope [2]: 1.3; Max. Fit [2]: 57; Min. Fit [2]: 0 |
| < 4.70 | 13 | COc1ccc(-c2ccccc2[C@H]2CCCN2C(=O)c2ccc(C)cc2)cn1 (stereo in doubt) [ESC1002120, [2-[2-(6-methoxy-3-pyridyl)phenyl]pyrrolidin-1-yl]-(p-tolyl)methanone] | 81.743 | 4.611 |  |
| 5.94 | 94 | Cc1ccsc1C(=O)N1CCC[C@@H]1c1ccccc1-c1cccnc1 [ESC1002090] | 102.627 | 5.162 | Hill Slope [2]: 1.1; Max. Fit [2]: 97; Min. Fit [2]: 0 |
| 5.50 | 84 | Cc1ccsc1C(=O)N1CCC[C@@H]1c1ccccc1-c1ccn[nH]1 [ESC1002091] | 84.920 | 5.395 | Hill Slope [2]: 1.2; Max. Fit [2]: 93 |
| < 4.70 | −2 | CC(C)CN(C(=O)c1ccccc1F)c1cccc(-n2ccnc2)c1 [ESC1002765] |  |  |  |
| 5.57 | 86 | CC(C)CN(C(=O)c1ccccc1F)c1cccc(N(C)Cc2nc[nH]n2)c1 [ESC1002770] |  |  | Hill Slope [2]: 1.2; Max. Fit [2]: 91; Min. Fit [2]: −4 |
| 5.25 | 77 | CC(C)CN(C(=O)c1ccccc1F)c1cccc(N(C)Cc2c[nH]cn2)n1 [ESC1002795] |  |  | Hill Slope [2]: 1.1; Max. Fit [2]: 93; Min. Fit [2]: 0 |
| < 4.70 | 47 | CC(C)CN(C(=O)c1ccccc1F)c1cccc(N(C)Cc2cc[nH]n2)n1 [ESC1002796] |  |  | Hill Slope [2]: 1.2; Max. Fit [2]: 100; Min. Fit [2]: −4 |
| < 4.70 | 20 | CC(C)CN(C(=O)c1ccccc1F)c1cncc(N(C)Cc2c[nH]cn2)c1 [ESC1002802] |  |  |  |
| < 4.70 | 4 | Cc1ccc(C(=O)N(CC(C)C)c2nccc(N(C)Cc3cnc[nH]3)n2)cc1 [ESC1002817] |  |  |  |
